Reference: the NIST ThermoML archive (doi:10.1021/je034087q)

Test: xn = mol fraction of the nth substance listed

CC(C)=O [acetone] + O=C=O
Conditions	mass density [kg/m3]
318.15 K, 8180 kPa, Fluid (supercritical or subcritical phases), x2 = 0.902	715
318.15 K, 8410 kPa, Fluid (supercritical or subcritical phases), x2 = 0.902	722
318.15 K, 8570 kPa, Fluid (supercritical or subcritical phases), x2 = 0.902	726
318.15 K, 8810 kPa, Fluid (supercritical or subcritical phases), x2 = 0.902	732
318.15 K, 8960 kPa, Fluid (supercritical or subcritical phases), x2 = 0.902	735
318.15 K, 9180 kPa, Fluid (supercritical or subcritical phases), x2 = 0.902	738
318.15 K, 9410 kPa, Fluid (supercritical or subcritical phases), x2 = 0.902	744
318.15 K, 9570 kPa, Fluid (supercritical or subcritical phases), x2 = 0.902	746
318.15 K, 9780 kPa, Fluid (supercritical or subcritical phases), x2 = 0.902	751
318.15 K, 9900 kPa, Fluid (supercritical or subcritical phases), x2 = 0.902	754
318.15 K, 10070 kPa, Fluid (supercritical or subcritical phases), x2 = 0.902	756
318.15 K, 10330 kPa, Fluid (supercritical or subcritical phases), x2 = 0.902	757
318.15 K, 10540 kPa, Fluid (supercritical or subcritical phases), x2 = 0.902	763
318.15 K, 10770 kPa, Fluid (supercritical or subcritical phases), x2 = 0.902	766
318.15 K, 10970 kPa, Fluid (supercritical or subcritical phases), x2 = 0.902	770
318.15 K, 11190 kPa, Fluid (supercritical or subcritical phases), x2 = 0.902	774
318.15 K, 11500 kPa, Fluid (supercritical or subcritical phases), x2 = 0.902	776
318.15 K, 11830 kPa, Fluid (supercritical or subcritical phases), x2 = 0.902	781
318.15 K, 12140 kPa, Fluid (supercritical or subcritical phases), x2 = 0.902	785
318.15 K, 12450 kPa, Fluid (supercritical or subcritical phases), x2 = 0.902	789
318.15 K, 12710 kPa, Fluid (supercritical or subcritical phases), x2 = 0.902	793
318.15 K, 13050 kPa, Fluid (supercritical or subcritical phases), x2 = 0.902	795
318.15 K, 13370 kPa, Fluid (supercritical or subcritical phases), x2 = 0.902	798
318.15 K, 13700 kPa, Fluid (supercritical or subcritical phases), x2 = 0.902	803
318.15 K, 14060 kPa, Fluid (supercritical or subcritical phases), x2 = 0.902	807
318.15 K, 14370 kPa, Fluid (supercritical or subcritical phases), x2 = 0.902	809
318.15 K, 14610 kPa, Fluid (supercritical or subcritical phases), x2 = 0.902	812
318.15 K, 14870 kPa, Fluid (supercritical or subcritical phases), x2 = 0.902	815
318.15 K, Liquid, Other PVT measurement, x2 = 0.902	709
323.15 K, 1690 kPa, Fluid (supercritical or subcritical phases), x2 = 0.186	764
323.15 K, 2050 kPa, Fluid (supercritical or subcritical phases), x2 = 0.186	767
323.15 K, 2920 kPa, Fluid (supercritical or subcritical phases), x2 = 0.186	770
323.15 K, 4190 kPa, Fluid (supercritical or subcritical phases), x2 = 0.383	789
323.15 K, 4500 kPa, Fluid (supercritical or subcritical phases), x2 = 0.186	772
323.15 K, 5090 kPa, Fluid (supercritical or subcritical phases), x2 = 0.576	798
323.15 K, 5870 kPa, Fluid (supercritical or subcritical phases), x2 = 0.383	795
323.15 K, 6050 kPa, Fluid (supercritical or subcritical phases), x2 = 0.186	775
323.15 K, 6120 kPa, Fluid (supercritical or subcritical phases), x2 = 0.576	802
323.15 K, 7330 kPa, Fluid (supercritical or subcritical phases), x2 = 0.186	777
323.15 K, 7430 kPa, Fluid (supercritical or subcritical phases), x2 = 0.576	810
323.15 K, 7470 kPa, Fluid (supercritical or subcritical phases), x2 = 0.772	783
323.15 K, 7570 kPa, Fluid (supercritical or subcritical phases), x2 = 0.811	760
323.15 K, 7780 kPa, Fluid (supercritical or subcritical phases), x2 = 0.811	764
323.15 K, 7880 kPa, Fluid (supercritical or subcritical phases), x2 = 0.383	800
323.15 K, 7930 kPa, Fluid (supercritical or subcritical phases), x2 = 0.772	787
323.15 K, 7930 kPa, Fluid (supercritical or subcritical phases), x2 = 0.811	769
323.15 K, 8250 kPa, Fluid (supercritical or subcritical phases), x2 = 0.882	703
323.15 K, 8280 kPa, Fluid (supercritical or subcritical phases), x2 = 0.811	774
323.15 K, 8420 kPa, Fluid (supercritical or subcritical phases), x2 = 0.772	792
323.15 K, 8500 kPa, Fluid (supercritical or subcritical phases), x2 = 0.882	712
323.15 K, 8620 kPa, Fluid (supercritical or subcritical phases), x2 = 0.811	778
323.15 K, 8630 kPa, Fluid (supercritical or subcritical phases), x2 = 0.882	716
323.15 K, 8710 kPa, Fluid (supercritical or subcritical phases), x2 = 0.186	781
323.15 K, 8750 kPa, Fluid (supercritical or subcritical phases), x2 = 0.902	678
323.15 K, 8790 kPa, Fluid (supercritical or subcritical phases), x2 = 0.882	719
323.15 K, 8860 kPa, Fluid (supercritical or subcritical phases), x2 = 0.933	586
323.15 K, 8880 kPa, Fluid (supercritical or subcritical phases), x2 = 0.933	590
323.15 K, 8920 kPa, Fluid (supercritical or subcritical phases), x2 = 0.902	683
323.15 K, 8930 kPa, Fluid (supercritical or subcritical phases), x2 = 0.882	721
323.15 K, 8930 kPa, Fluid (supercritical or subcritical phases), x2 = 0.933	594
323.15 K, 8960 kPa, Fluid (supercritical or subcritical phases), x2 = 0.576	813
323.15 K, 8970 kPa, Fluid (supercritical or subcritical phases), x2 = 0.772	796
323.15 K, 8980 kPa, Fluid (supercritical or subcritical phases), x2 = 0.952	495
323.15 K, 8990 kPa, Fluid (supercritical or subcritical phases), x2 = 0.933	601
323.15 K, 9000 kPa, Fluid (supercritical or subcritical phases), x2 = 0.948	540
323.15 K, 9000 kPa, Fluid (supercritical or subcritical phases), x2 = 0.952	497
323.15 K, 9020 kPa, Fluid (supercritical or subcritical phases), x2 = 0.902	687
323.15 K, 9030 kPa, Fluid (supercritical or subcritical phases), x2 = 0.952	502
323.15 K, 9040 kPa, Fluid (supercritical or subcritical phases), x2 = 0.933	606
323.15 K, 9060 kPa, Fluid (supercritical or subcritical phases), x2 = 0.948	549
323.15 K, 9060 kPa, Fluid (supercritical or subcritical phases), x2 = 0.952	505
323.15 K, 9090 kPa, Fluid (supercritical or subcritical phases), x2 = 0.952	510
323.15 K, 9100 kPa, Fluid (supercritical or subcritical phases), x2 = 0.933	613
323.15 K, 9110 kPa, Fluid (supercritical or subcritical phases), x2 = 0.882	728
323.15 K, 9120 kPa, Fluid (supercritical or subcritical phases), x2 = 0.948	559
323.15 K, 9120 kPa, Fluid (supercritical or subcritical phases), x2 = 0.952	514
323.15 K, 9140 kPa, Fluid (supercritical or subcritical phases), x2 = 0.952	519
323.15 K, 9160 kPa, Fluid (supercritical or subcritical phases), x2 = 0.902	690
323.15 K, 9170 kPa, Fluid (supercritical or subcritical phases), x2 = 0.952	523
323.15 K, 9180 kPa, Fluid (supercritical or subcritical phases), x2 = 0.933	618
323.15 K, 9190 kPa, Fluid (supercritical or subcritical phases), x2 = 0.952	527
323.15 K, 9200 kPa, Fluid (supercritical or subcritical phases), x2 = 0.948	568
323.15 K, 9220 kPa, Fluid (supercritical or subcritical phases), x2 = 0.952	531
323.15 K, 9240 kPa, Fluid (supercritical or subcritical phases), x2 = 0.933	624
323.15 K, 9250 kPa, Fluid (supercritical or subcritical phases), x2 = 0.952	537
323.15 K, 9270 kPa, Fluid (supercritical or subcritical phases), x2 = 0.902	694
323.15 K, 9290 kPa, Fluid (supercritical or subcritical phases), x2 = 0.952	541
323.15 K, 9300 kPa, Fluid (supercritical or subcritical phases), x2 = 0.948	579
323.15 K, 9320 kPa, Fluid (supercritical or subcritical phases), x2 = 0.952	546
323.15 K, 9330 kPa, Fluid (supercritical or subcritical phases), x2 = 0.933	630
323.15 K, 9350 kPa, Fluid (supercritical or subcritical phases), x2 = 0.811	787
323.15 K, 9350 kPa, Fluid (supercritical or subcritical phases), x2 = 0.952	550
323.15 K, 9380 kPa, Fluid (supercritical or subcritical phases), x2 = 0.882	732
323.15 K, 9380 kPa, Fluid (supercritical or subcritical phases), x2 = 0.952	556
323.15 K, 9400 kPa, Fluid (supercritical or subcritical phases), x2 = 0.902	699
323.15 K, 9410 kPa, Fluid (supercritical or subcritical phases), x2 = 0.933	637
323.15 K, 9410 kPa, Fluid (supercritical or subcritical phases), x2 = 0.948	590
323.15 K, 9430 kPa, Fluid (supercritical or subcritical phases), x2 = 0.952	561
323.15 K, 9450 kPa, Fluid (supercritical or subcritical phases), x2 = 0.772	798
323.15 K, 9480 kPa, Fluid (supercritical or subcritical phases), x2 = 0.952	567
323.15 K, 9520 kPa, Fluid (supercritical or subcritical phases), x2 = 0.902	702
323.15 K, 9520 kPa, Fluid (supercritical or subcritical phases), x2 = 0.933	642
323.15 K, 9520 kPa, Fluid (supercritical or subcritical phases), x2 = 0.952	571
323.15 K, 9540 kPa, Fluid (supercritical or subcritical phases), x2 = 0.948	602
323.15 K, 9560 kPa, Fluid (supercritical or subcritical phases), x2 = 0.383	803
323.15 K, 9560 kPa, Fluid (supercritical or subcritical phases), x2 = 0.952	578
323.15 K, 9620 kPa, Fluid (supercritical or subcritical phases), x2 = 0.952	582
323.15 K, 9630 kPa, Fluid (supercritical or subcritical phases), x2 = 0.933	649
323.15 K, 9650 kPa, Fluid (supercritical or subcritical phases), x2 = 0.882	736
323.15 K, 9660 kPa, Fluid (supercritical or subcritical phases), x2 = 0.948	613
